Key:
Test in all cases: Test B pre-/postemergence plant response
Assay type in all cases: in vivo
Details in all cases: Preemergence
[1] = tested on: common ragweed (Ambrosia elation)
Text: (§1) Seeds of plant species selected from blackgrass (Alopecurus myosuroides), downy bromegrass (Bromus tectorum), green foxtail (Setaria viridis), Italian ryegrass (Lolium multiflorum), wheat (Triticum aestivum), wild oat (Avena fatua), catchweed bedstraw (Galium aparine), bermudagrass (Cynodon dactylon), surinam grass (Brachiaria decumbens), cocklebur (Xanthium strumarium), corn (Zea mays), large crabgrass (Digitaria sanguinalis), woolly cupgrass (Eriochloa villosa), giant foxtail (Setaria faberii), goosegrass (Eleusine indica), johnsongrass (Sorghum halepense), kochia (Kochia scoparia), lambsquarters (Chenopodium album), morningglory (Ipomoea coccinea), eastern black (E.B.) nightshade (Solanum ptycanthum), yellow nutsedge (Cyperus esculentus), pigweed (Amaranthus retroflexus), common ragweed (Ambrosia elation), Russian thistle (Salsola iberica), soybean (Glycine max), common (oilseed) sunflower (Helianthus annuus), and velvetleaf (Abutilon theophrasti) were planted and treated preemergence with test chemicals formulated in a non-phytotoxic solvent mixture which included a surfactant.
(§2) At the same time, plants selected from these crop and weed species and also winter barley (Hordeum vulgare), canarygrass (Phalaris minor), chickweed (Stellaria media) and windgrass (Apera spica-venti) were treated with postemergence applications of some of the test chemicals formulated in the same manner. Plants ranged in height from 2 to 18 cm (1- to 4-leaf stage) for postemergence treatments.
(§3) Plant species in the flooded paddy test consisted of rice (Oryza sativa), umbrella sedge (Cyperus difformis), ducksalad (Heteranthera limosa) and barnyardgrass (Echinochloa crus-galli) grown to the 2-leaf stage for testing. At time of treatment, test pots were flooded to 3 cm above the soil surface, treated by application of test compounds directly to the paddy water, and then maintained at that water depth for the duration of the test. Treated plants and controls were maintained in a greenhouse for 13 to 15 days, after which time all species were compared to controls and visually evaluated. Plant response ratings, summarized in Table B, are based on a scale of 0 to 100 where 0 is no effect and 100 is complete control. A dash (-) response means no test result.

[2] = tested on: woolly cupgrass (Eriochloa villosa)
Text: as §1, §2, §3

[3] = tested on: green foxtail (Setaria viridis)
Text: as §1, §2, §3

[4] = tested on: surinam grass (Brachiaria decumbens)
Text: as §1, §2, §3

[5] = tested on: Russian thistle (Salsola iberica)
Text: as §1, §2, §3

[6] = tested on: common (oilseed) sunflower (Helianthus annuus)
Text: as §1, §2, §3

[7] = tested on: wheat (Triticum aestivum)
Text: as §1, §2, §3

corn (Zea mays) = tested on: corn (Zea mays)
Text: as §1, §2, §3

[8] = tested on: yellow nutsedge (Cyperus esculentus)
Text: as §1, §2, §3

wild oat (Avena fatua) = tested on: wild oat (Avena fatua)
Text: as §1, §2, §3

[9] = tested on: blackgrass (Alopecurus myosuroides)
Text: as §1, §2, §3

[10] = tested on: cocklebur (Xanthium strumarium)
Text: as §1, §2, §3

[11] = tested on: downy bromegrass (Bromus tectorum)
Text: as §1, §2, §3

[12] = tested on: eastern black (E.B.) nightshade (Solanum ptycanthum)
Text: as §1, §2, §3

[13] = 16 g ai/ha, scale 0 to 100 (0 no effect, 100 complete control)
[14] = 31 g ai/ha, 0 to 100 scale, 0 no effect, 100 complete control

Cc1cc(-c2ccc(C(F)(F)F)cc2)nn1-c1c(O)c(C(C)C)nn(C)c1=O [Compound 27]
15: Plant response rating, Wheat [7, 14]
75: Plant response rating, Surinam Grass ([4]; 62 g ai/ha, scale 0 to 100) | Plant response rating, Corn (corn (Zea mays); [14])
85: Plant response rating, Foxtail, Green ([3]; 62 g ai/ha, scale 0 to 100) | Plant response rating, Corn (corn (Zea mays); 62 g ai/ha, scale 0 to 100)
0: Plant response rating, Ragweed [1, 13] | Plant response rating, Ragweed [1, 14] | Plant response rating, Ragweed ([1]; 62 g ai/ha, scale 0 to 100) | Ragweed plant response rating ([1]; 8 g ai/ha, scale 0 to 100) | Plant response rating, Cupgrass, Woolly [2, 13] | Cupgrass, Woolly plant response rating ([2]; 8 g ai/ha, scale 0 to 100) | Plant response rating, Foxtail, Green [3, 13] | Foxtail, Green plant response rating ([3]; 8 g ai/ha, scale 0 to 100) | Plant response rating, Surinam Grass [4, 13] | Plant response rating, Surinam Grass [4, 14] | Surinam Grass plant response rating ([4]; 8 g ai/ha, scale 0 to 100) | Plant response rating, Russian Thistle [5, 13] | Plant response rating, Russian Thistle [5, 14] | Plant response rating, Russian Thistle ([5]; 62 g ai/ha, scale 0 to 100) | Russian Thistle plant response rating ([5]; 8 g ai/ha, scale 0 to 100) | Plant response rating, Sunflower [6, 13] | Plant response rating, Sunflower [6, 14] | Plant response rating, Sunflower ([6]; 62 g ai/ha, scale 0 to 100) | Sunflower plant response rating ([6]; 8 g ai/ha, scale 0 to 100) | Plant response rating, Wheat [7, 13] | Wheat plant response rating ([7]; 8 g ai/ha, scale 0 to 100) | Plant response rating, Corn (corn (Zea mays); [13]) | Corn plant response rating (corn (Zea mays); 8 g ai/ha, scale 0 to 100) | Plant response rating, Nutsedge, Yellow [8, 13] | Plant response rating, Nutsedge, Yellow [8, 14] | Plant response rating, Nutsedge, Yellow ([8]; 62 g ai/ha, scale 0 to 100) | Nutsedge, Yellow plant response rating ([8]; 8 g ai/ha, scale 0 to 100) | Plant response rating, Oat, Wild (wild oat (Avena fatua); [13]) | Oat, Wild plant response rating (wild oat (Avena fatua); 8 g ai/ha, scale 0 to 100) | Plant response rating, Cocklebur [10, 13] | Plant response rating, Cocklebur [10, 14] | Plant response rating, Cocklebur ([10]; 62 g ai/ha, scale 0 to 100) | Cocklebur plant response rating ([10]; 8 g ai/ha, scale 0 to 100) | Plant response rating, Bromegrass, Downy [11, 13] | Bromegrass, Downy plant response rating ([11]; 8 g ai/ha, scale 0 to 100) | Plant response rating, Nightshade, E. B. [12, 13] | Plant response rating, Nightshade, E. B. [12, 14] | Plant response rating, Nightshade, E. B. ([12]; 62 g ai/ha, scale 0 to 100) | Nightshade, E. B. plant response rating ([12]; 8 g ai/ha, scale 0 to 100)
20: Plant response rating, Blackgrass [9, 13]
55: Plant response rating, Cupgrass, Woolly ([2]; 62 g ai/ha, scale 0 to 100)
45: Plant response rating, Wheat ([7]; 62 g ai/ha, scale 0 to 100)
50: Plant response rating, Oat, Wild (wild oat (Avena fatua); [14]) | Plant response rating, Oat, Wild (wild oat (Avena fatua); 62 g ai/ha, scale 0 to 100) | Plant response rating, Blackgrass [9, 14] | Plant response rating, Bromegrass, Downy [11, 14] | Plant response rating, Bromegrass, Downy ([11]; 62 g ai/ha, scale 0 to 100)
100: Plant response rating, Blackgrass ([9]; 62 g ai/ha, scale 0 to 100)
60: Plant response rating, Foxtail, Green [3, 14]
30: Plant response rating, Cupgrass, Woolly [2, 14]

Reference: patent US20100267561A1, “HERBICIDAL PYRIDAZINONE DERIVATIVES” (priority 2007, published 2010)
